Our source for the IC50 values is patent US10092570B2 (Incyte Corporation, priority 2011, dated 2018).

Where a name gives a salt, the structure may show the parent alone.

The subject of assay [1] is Pfeiffer cell line (diffuse large B cell lymphoma). The experiment in a line: Example B2: Pfeiffer cell proliferation assay. The assay is classed as cell-based. Particulars: Homo sapiens, Pfeiffer, Pfeiffer cells, [3H]-thymidine incorporation. The procedure:
Pfeiffer cell line (diffuse large B cell lymphoma) are purchased from ATCC (Manassas, Va.) and maintained in the culture medium recommended (RPMI and 10% FBS). To measure the anti-proliferation activity of the compounds, the Pfeiffer cells are plated with the culture medium (2×10^3 cells/well/per 200 μl) into 96-well ultra-low binding plates (Corning, Corning, N.Y.), in the presence or absence of a concentration range of test compounds. After 3-4 days, [^3H]-thymidine (1 μCi/well) (PerkinElmer, Boston, Mass.) in PBS is then added to the cell culture for an additional 12 hours before the incorporated radioactivity is separated by filtration with water through GF/B filters (Packard Bioscience, Meridenj, Conn.) and measured by liquid scintillation counting with a TopCount (Packard Bioscience).
(In general: Uptake of a labelled nucleoside into DNA is a usual measure of proliferation.)

In assay [2] the target is PI3Kδ (p110δ/p85α) (Homo sapiens (Human), UniProt O00329). Briefly: Example A3: PI3Kδ scintillation proximity assay. The assay is classed as biochemical. Particulars: scintillation proximity assay, 20 μM ATP, 4 nM PI3Kδ; read-out: PI3Kδ SPA IC50. The procedure, abridged: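 p110δ/p85α (4 nM) phosphorylated 20 μM PIP2 with 20 μM ATP plus [γ-33P]ATP in MOPS pH 6.7, MgCl2, DTT, CHAPS, 0.5% DMSO, at RT. Stopped with EDTA/excess ATP, product captured on WGA SPA beads overnight and counted; IC50 from percent control activity versus log inhibitor.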
(In general: SPA uses beads or plates that emit light when radiolabelled molecules are held near them.)

Sequence of PI3Kδ (p110δ/p85α) (O00329 whole entry): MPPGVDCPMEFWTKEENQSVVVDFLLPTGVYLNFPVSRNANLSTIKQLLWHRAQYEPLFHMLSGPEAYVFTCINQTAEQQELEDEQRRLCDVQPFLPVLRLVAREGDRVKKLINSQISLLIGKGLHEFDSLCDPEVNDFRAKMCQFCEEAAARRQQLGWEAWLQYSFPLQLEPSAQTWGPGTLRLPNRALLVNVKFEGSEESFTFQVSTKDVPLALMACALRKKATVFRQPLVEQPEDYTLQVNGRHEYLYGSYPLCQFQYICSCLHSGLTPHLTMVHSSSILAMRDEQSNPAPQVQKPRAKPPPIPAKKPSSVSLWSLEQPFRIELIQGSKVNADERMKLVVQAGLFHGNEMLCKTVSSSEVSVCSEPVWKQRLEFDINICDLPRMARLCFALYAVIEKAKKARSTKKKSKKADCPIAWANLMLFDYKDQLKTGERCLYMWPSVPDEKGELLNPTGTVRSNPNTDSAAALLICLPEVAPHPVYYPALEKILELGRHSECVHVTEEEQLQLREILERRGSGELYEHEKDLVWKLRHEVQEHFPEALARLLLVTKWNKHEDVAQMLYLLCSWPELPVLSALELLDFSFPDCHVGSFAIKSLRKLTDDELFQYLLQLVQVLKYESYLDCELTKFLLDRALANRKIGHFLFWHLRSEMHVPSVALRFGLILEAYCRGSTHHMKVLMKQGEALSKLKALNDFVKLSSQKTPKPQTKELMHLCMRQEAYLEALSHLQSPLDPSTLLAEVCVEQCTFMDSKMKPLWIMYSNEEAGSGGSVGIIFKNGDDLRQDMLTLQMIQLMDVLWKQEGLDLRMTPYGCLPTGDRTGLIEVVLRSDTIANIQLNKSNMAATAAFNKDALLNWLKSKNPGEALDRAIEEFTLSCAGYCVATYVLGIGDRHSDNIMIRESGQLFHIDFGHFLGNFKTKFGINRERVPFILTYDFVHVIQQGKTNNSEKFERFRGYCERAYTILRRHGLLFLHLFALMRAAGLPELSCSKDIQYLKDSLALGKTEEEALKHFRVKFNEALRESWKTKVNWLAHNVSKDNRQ
Sequence of PI3Kδ (p110δ/p85α) (P27986 whole entry partner): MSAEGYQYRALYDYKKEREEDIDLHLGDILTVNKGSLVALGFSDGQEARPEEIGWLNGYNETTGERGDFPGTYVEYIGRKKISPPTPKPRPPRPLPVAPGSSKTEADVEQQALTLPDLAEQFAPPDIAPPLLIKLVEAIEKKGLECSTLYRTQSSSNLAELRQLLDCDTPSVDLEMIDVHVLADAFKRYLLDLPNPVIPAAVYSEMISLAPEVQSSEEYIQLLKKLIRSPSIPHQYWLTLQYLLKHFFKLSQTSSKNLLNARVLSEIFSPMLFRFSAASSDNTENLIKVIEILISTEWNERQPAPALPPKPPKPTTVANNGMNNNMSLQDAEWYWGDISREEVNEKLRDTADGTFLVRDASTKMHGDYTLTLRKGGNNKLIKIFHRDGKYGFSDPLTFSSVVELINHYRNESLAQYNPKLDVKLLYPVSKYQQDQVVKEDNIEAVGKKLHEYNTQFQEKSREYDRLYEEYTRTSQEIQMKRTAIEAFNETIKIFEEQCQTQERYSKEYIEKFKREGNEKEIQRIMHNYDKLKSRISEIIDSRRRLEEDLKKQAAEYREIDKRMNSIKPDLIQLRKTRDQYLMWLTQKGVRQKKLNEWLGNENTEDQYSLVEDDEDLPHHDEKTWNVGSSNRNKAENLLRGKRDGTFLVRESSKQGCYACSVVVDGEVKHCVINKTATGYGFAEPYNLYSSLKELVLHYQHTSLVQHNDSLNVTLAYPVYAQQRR

The compound `CCOc1c(C(C)n2nc(C)c3c(N)ncnc32)cc(Cl)c(C)c1-c1cncc(C(=O)N(C)C)c1` (single isomer, unassigned) [Example 196, 5-(3-(1-(4-amino-3-methyl-1H-pyrazolo[3,4-d]pyrimidin-1-yl)ethyl)-5-chloro-2-ethoxy-6-methylphenyl)-N,N-dimethylnicotinamide] came in with an IC50 in assay [1] of less than 10 nM.

For `CCOc1c(C(C)n2nc(C)c3c(N)ncnc32)cc(Cl)c(C#N)c1C1CN(S(C)(=O)=O)C1` (single isomer, unassigned) [Example 248, 4-[1-(4-Amino-3-methyl-1H-pyrazolo[3,4-d]pyrimidin-1-yl)ethyl]-6-chloro-3-ethoxy-2-[1-(methylsulfonyl)azetidin-3-yl]benzonitrile], the IC50 in assay [1] was less than 10 nM.

`CCOc1c(C(C)n2nc(C)c3c(N)ncnc32)cc(Cl)c(C#N)c1C1CN(CC(C)(C)O)C1` (single isomer, unassigned) [Example 222, 4-[1-(4-Amino-3-methyl-1H-pyrazolo[3,4-d]pyrimidin-1-yl)ethyl]-6-chloro-3-ethoxy-2-[1-(2-hydroxy-2-methylpropyl)azetidin-3-yl]benzonitrile] had an IC50 in assay [1] of less than 10 nM.

`COc1c(C(C)n2nc(C)c3c(N)ncnc32)cc(Cl)c(C#N)c1C1CN(CC(C)(C)O)C1` (single isomer, unassigned) [Example 271, 4-[1-(4-Amino-3-methyl-1H-pyrazolo[3,4-d]pyrimidin-1-yl)ethyl]-6-chloro-2-[1-(2-hydroxy-2-methylpropyl)azetidin-3-yl]-3-methoxybenzonitrile] yielded an IC50 in assay [1] of less than 10 nM.

On to `COc1c(C(C)n2nc(C)c3c(N)ncnc32)cc(Cl)c(F)c1C1CN(C[C@@H](C)O)C1` (stereo partly drawn) [Example 69, (2R)-1-(3-{3-[1-(4-Amino-3-methyl-1H-pyrazolo[3,4-d]pyrimidin-1-yl)ethyl]-5-cyloro-6-fluoro-2-methoxyphenyl}azetidin-1-yl)propan-2-ol], for which, in assay [2], the IC50 was less than 10 nM.

For the compound `CCOc1c(C(C)n2nc(-c3ccc(C(=O)NC)nc3)c3c(N)ncnc32)cc(Cl)c(C)c1-c1ccc(C(=O)N(C)C)nc1` (racemic) [Example 59, 5-{3-[1-(4-amino-3-{6-[(methylamino)carbonyl]pyridin-3-yl}-1H-pyrazolo[3,4-d]pyrimidin-1-yl)ethyl]-5-chloro-2-ethoxy-6-methylphenyl}-N,N-dimethylpyridine-2-carboxamide tris(trifluoroacetate)], the IC50 in assay [2] is less than 10 nM.

On to `COc1c(C(C)n2nc(C)c3c(N)ncnc32)cc(Cl)c(C)c1C1CN(C(=O)[C@H](C)O)C1` (single isomer, unassigned) [Example 118], for which the half-maximal inhibitory concentration (IC50) in assay [2] was less than 10 nM.

For `COc1c(C(C)n2nc(C(F)F)c3c(N)ncnc32)cc(Cl)c(F)c1C1CN(C[C@H](C)O)C1` (stereo partly drawn) [Example 76, (2S)-1-[3-(3-{1-[4-amino-3-(difluoromethyl)-1H-pyrazolo[3,4-d]pyrimidin-1-yl]ethyl}-5-chloro-6-fluoro-2-methoxyphenyl)azetidin-1-yl]propan-2-ol], the IC50 in assay [2] is less than 10 nM.

As to `CCOc1c(C(C)n2nc(I)c3c(N)ncnc32)cc(Cl)c(C)c1-c1ccc(C(=O)N(C)C)nc1` (racemic) [Example 15, 5-{3-[1-(4-Amino-3-iodo-1H-pyrazolo[3,4-d]pyrimidin-1-yl)ethyl]-5-chloro-2-ethoxy-6-methylphenyl}-N,N-dimethylpyridine-2-carboxamide], in assay [2], the IC50 is less than 10 nM.

Regarding `COc1c(C(C)n2nc(C)c3c(N)ncnc32)cc(Cl)c(C)c1C1CN([C@@H](C)C(=O)N(C)C)C1` (stereo partly drawn) [Example 160, (2S)-2-(3-{3-[1-(4-Amino-3-methyl-1H-pyrazolo[3,4-d]pyrimidin-1-yl)ethyl]-5-chloro-2-methoxy-6-methylphenyl}azetidin-1-yl)-N,N-dimethylpropanamide], in assay [2], the IC50 is less than 10 nM.

For the compound `CCOc1c(C(C)n2nc(C(F)F)c3c(N)ncnc32)cc(Cl)c(C)c1-c1ccc(C(=O)N(C)C)nc1` (racemic) [Example 82, 5-(3-{1-[4-Amino-3-(difluoromethyl)-1H-pyrazolo[3,4-d]pyrimidin-1-yl]ethyl}-5-chloro-2-ethoxy-6-methylphenyl)-N,N-dimethylpyridine-2-carboxamide bis(trifluoroacetate)], the IC50 in assay [2] was less than 10 nM.

Take `COc1c(C(C)n2nc(C)c3c(N)ncnc32)cc(Cl)c(C)c1-c1cnn(C(C)C(=O)N(C)C)c1` (stereo not drawn) [Example 207, 2-(4-(3-(1-(4-amino-3-methyl-1H-pyrazolo[3,4-d]pyrimidin-1-yl)ethyl)-5-chloro-2-methoxy-6-methylphenyl)-1H-pyrazol-1-yl)-N,N-dimethylpropanamide]: the IC50 in assay [2] is less than 10 nM.

Take `CCOc1c(C(C)n2nc(C)c3c(N)ncnc32)cc(Cl)c(C#N)c1C1CN(CC2CC2)C1` (single isomer, unassigned) [Example 217, 4-[1-(4-Amino-3-methyl-1H-pyrazolo[3,4-d]pyrimidin-1-yl)ethyl]-6-chloro-2-[1-(cyclopropylmethyl)azetidin-3-yl]-3-ethoxybenzonitrile]: the IC50 in assay [2] was less than 10 nM.

On to `CNC(=O)[C@@H](C)N1CC(c2c(C)c(C#N)cc(C(C)n3nc(C(F)F)c4c(N)ncnc43)c2OC)C1` (stereo partly drawn) [Example 135, (2R)-2-[3-(3-{1-[4-Amino-3-(difluoromethyl)-1H-pyrazolo[3,4-d]pyrimidin-1-yl]ethyl}-5-cyano-2-methoxy-6-methylphenyl)azetidin-1-yl]-N-methylpropanamide], for which the IC50 in assay [2] is less than 10 nM.

With `CCOc1c(C(C)n2ccc(=O)c3c(N)ncnc32)cc(Cl)c(C#N)c1-c1ccc(C(=O)N(C)C)nc1` (racemic) [Example 45, 5-{3-[1-(4-amino-5-oxopyrido[2,3-d]pyrimidin-8(5H)-yl)ethyl]-5-chloro-6-cyano-2-ethoxyphenyl}-N,N-dimethylpyridine-2-carboxamide], the IC50 in assay [2] is less than 10 nM.

Take `COc1c(C(C)n2nc(-c3cn[nH]c3)c3c(N)ncnc32)cc(Cl)c(C)c1C1CN(CC#N)C1` (stereo not drawn) [Example 126, [3-(3-{1-[4-Amino-3-(1H-pyrazol-4-yl)-1H-pyrazolo[3,4-d]pyrimidin-1-yl]ethyl}-5-chloro-2-methoxy-6-methylphenyl)azetidin-1-yl]acetonitrile]: the IC50 in assay [2] was less than 10 nM.

Regarding `CCOc1c(C(C)n2nc(C)c3c(N)ncnc32)cc(Cl)c(C)c1C1CN(C[C@@H](C)O)C1` (stereo partly drawn) [Example 97, (2R)-1-(3-{3-[1-(4-Amino-3-methyl-1H-pyrazolo[3,4-d]pyrimidin-1-yl)ethyl]-5-chloro-2-ethoxy-6-methylphenyl}azetidin-1-yl)propan-2-ol], the IC50 in assay [2] is less than 10 nM.

Regarding `COc1c(C(C)n2ccc3c(N)ncnc32)cc(Cl)c(C)c1-c1ccc(C(=O)N(C)C)nc1` (stereo not drawn) [Example 12, 5-{3-[1-(4-Amino-7H-pyrrolo[2,3-d]pyrimidin-7-yl)ethyl]-5-chloro-2-methoxy-6-methylphenyl}-N,N-dimethylpyridine-2-carboxamide trifluoroacetate], in assay [2], the IC50 was in the range of 200 to 500 nM.

For the compound `CCOc1c(C(C)n2nc(C)c3c(N)ncnc32)cc(Cl)c(C#N)c1N1CC(C#N)C1` (racemic) [Example 342, 1-{3-[1-(4-amino-3-methyl-1H-pyrazolo[3,4-d]pyrimidin-1-yl)ethyl]-5-chloro-6-cyano-2-ethoxyphenyl}azetidine-3-carbonitrile], the IC50 in assay [2] was less than 10 nM.

In the case of `COc1c(C(C)n2nc(C)c3c(N)ncnc32)cc(Cl)c(C)c1-c1cnn(C2CCN(C(C)=O)CC2)c1` (single isomer, unassigned) [Example 182, 1-(1-{3-[1-(1-Acetylpiperidin-4-yl)-1H-pyrazol-4-yl]-5-chloro-2-methoxy-4-methylphenyl}ethyl)-3-methyl-1H-pyrazolo[3,4-d]pyrimidin-4-amine], in assay [2], the IC50 is less than 10 nM.

Regarding `COc1c(C(C)n2nc(C)c3c(N)ncnc32)cc(Cl)c(C#N)c1C1CNC1` (single isomer, unassigned) [Example 261, 4-[1-(4-Amino-3-methyl-1H-pyrazolo[3,4-d]pyrimidin-1-yl)ethyl]-2-azetidin-3-yl-6-chloro-3-methoxybenzonitrile], the IC50 in assay [2] was less than 10 nM.

`CCOc1c(C(C)n2nc(C)c3c(N)ncnc32)cc(Cl)c(C)c1-c1ccc(C(=O)N(C)C)nc1` (stereo not drawn) [Example 14, 5-{3-[1-(4-Amino-3-methyl-1H-pyrazolo[3,4-d]pyrimidin-1-yl)ethyl]-5-chloro-2-ethoxy-6-methylphenyl}-N,N-dimethylpyridine-2-carboxamide bis(trifluoroacetate)]: in assay [2], the IC50 was less than 10 nM.

On to `COc1c(C(C)n2cc(-c3cn[nH]c3)c(=O)c3c(N)ncnc32)cc(Cl)c(C)c1-c1ccc(C(=O)N(C)C)nc1` (stereo not drawn) [Example 359, 5-(3-{1-[4-Amino-5-oxo-6-(1H-pyrazol-4-yl)pyrido[2,3-d]pyrimidin-8(5H)-yl]ethyl}-5-chloro-2-methoxy-6-methylphenyl)-N,N-dimethylpyridine-2-carboxamide], for which, in assay [2], the IC50 was less than 10 nM.

As to `CCOc1c(C(C)n2nc(C)c3c(N)ncnc32)cc(Cl)c(C#N)c1-c1ccc(-c2cnn(C)n2)nc1` (racemic) [Example 337, 4-[1-(4-amino-3-methyl-1H-pyrazolo[3,4-d]pyrimidin-1-yl)ethyl]-6-chloro-3-ethoxy-2-[6-(2-methyl-2H-1,2,3-triazol-4-yl)pyridin-3-yl]benzonitrile], in assay [2], the IC50 was less than 10 nM.

The term IC50 denotes the concentration that inhibits the measured activity by half.
